Laboratory results from patent US20260297129A1, “PEPTIDES AS SELECTIVE IL-23 RECEPTOR INHIBITORS” (SANOFI, priority 2023, published 2026).
Converted amounts (≈) assume the structure as drawn. Read-outs that look alike come from different tables or passages of the source. Numbered stars: 1 amine (or outer) side, 2 acyl side, 3 side chain; on linkers, the order of the positions; unused ones are H or OH. Bridge positions count the residues as written; N and C are the ends. Square brackets hold non-standard residues; d marks the D form. Peptide text beside a SMILES is read from it. * marks the point of attachment. Lys(Me,(CH2)4NMe(CH2)5CO) = CN(CCCCCC(=O)[*:3])CCCCN(C)CCCC[C@H](N[*:1])C(=O)[*:2]; Lys(Me,(CH2)4NMe(CH2)4CO) = CN(CCCCC(=O)[*:3])CCCCN(C)CCCC[C@H](N[*:1])C(=O)[*:2]; Trp(7-Me) = Cc1cccc2c(C[C@H](N)C(=O)O)c[nH]c12; Trp(1-Me) = Cn1cc(C[C@H](N)C(=O)O)c2ccccc21; NH(2-(3-pyridyl)ethyl) = c1cncc(CCN*)c1; Sebacoyl = O=C(CCCCCCCCC(=O)[*:2])[*:1]; αMeLys(Me2) = CN(C)CCCC[C@](C)(N)C(=O)O; 2Nal = N[C@@H](Cc1ccc2ccccc2c1)C(=O)O; 3Pal = N[C@@H](Cc1cccnc1)C(=O)O; Lys(Me) = CNCCCC[C@H](N)C(=O)O; Aun = NCCCCCCCCCCC(=O)O; Thp = NC1(C(=O)O)CCOCC1; Me2NCH2CH2 = CN(C)CC*; Aib = CC(C)(N)C(=O)O; Sar = CNCC(=O)O

Experiments:
[1] = system: IL-23 induced STAT3 signaling (IL-23 receptor) in HEK-Blue IL-23 cells; assay: Inhibition of IL-23 induced STAT3 signaling in HEK-Blue IL-23 cells, SEAP reporter (Table 9); type: cell-based; settings: human IL23 0.25 ng/ml, overnight, read-out: Inhibition of IL-23 induced pSTAT3 (IC50 nM)
Summary of the method: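 STAT3-driven SEAP output measured at OD 620–655 nm after 45 min QUANTI-Blue development of supernatant, with dose-response fits. Peptides were given 60 min ahead of 0.25 ng/ml (final) human IL-23, followed by overnight culture at 37 °C; 10,000 HEK-Blue IL-23 cells per well.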

[2] = Protease stability in simulated intestinal fluids (FaSSIF) (Table 7); type: in vitro ADME; settings: fassif with pancreatin, 37° C.; for remaining at 1 h, 1 µM: 60 min, read-out: Remaining percentage of peptide compound, FaSSIF 60 (min); for remaining at 2 h, 1 µM: 120 min, read-out: Remaining percentage of peptide compound, FaSSIF 120 (min); for remaining at 4 h, 1 µM: 240 min, read-out: Remaining percentage of peptide compound, FaSSIF 240 (min)
Summary of the method: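 Percent parent remaining was derived from LC-MS/MS peak areas normalised to time 0, set at 100%. Sampling at 0, 60, 120 and 240 min, quenched in ethanol with 0.1% HCOOH. Final peptide 1 μM, 37° C, SIF containing pancreatin.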

[3] = Protease stability in simulated gastric fluids (FaSSGF) (Table 7); type: in vitro ADME; settings: fassgf with pepsin, 60 min, 37° C., read-out: Remaining percentage of peptide compound, FaSSGF 60 (min)
Summary of the method: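 Peptides at 1 μM final were incubated at 37 °C in simulated gastric fluid with pepsin (320 mg per 100 mL SGF concentrate). Samples were quenched with ethanol (0.1% HCOOH) at 0, 60, 120 and 240 min and analysed by LC-MS/MS. Percent remaining is the peak area relative to T0 (100%).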

[4] = Solubility of peptide compounds in buffer formulations (Table 5); type: physicochemical; settings: target 1 mg/ml
Summary of the method: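 Solubility was quantified by UHPLC-UV, comparing 1:10-diluted filtrate peak areas with a DMSO reference standard and correcting for extinction coefficients. Samples were prepared from dried DMSO stock at 1 mg/mL nominal in pH 1.2 HCl, pH 6.5 or pH 7.4 phosphate (50 mM), and agitated 2 h.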

[5] = Chemical stability (relative purity loss) of peptide compounds in buffer formulations (Table 6); type: physicochemical; settings: 2° C. and 37° C.
Description: Purity of a peptide batch was determined through UHPLC/MS method A prior to chemical stability measurement.
For stability assessment, the target concentration was 0.5 mg pure compound/ml. Therefore, solutions from solid samples were prepared in a buffer system at a concentration of 0.5 mg/mL compound. The solid samples were obtained by drying down aliquots of a freshly prepared acetonitrile stock solution using a THERMO SPEEDVAC vacuum centrifuge. The dry down time was 3 hours.
The following buffer systems were applied: • Solubility buffer system A): 50 mM HCl pH 1.2+Acetonitrile (3:1). • Solubility buffer system B): 50 mM phosphate buffer pH 6.5+Acetonitrile (3:1). • Solubility buffer system C): 50 mM phosphate buffer pH 7.4+Acetonitrile (3:1). • Prepared solutions were stored for 24 hours at 2° C. and 37° C.
After this time course, the samples were centrifuged for 15 min at 2500 RCF to create a 1:5 dilution of the supernatant. Then 2 μl of the dilution were analyzed with UHPLC-UV applying method A.
The chemical stability was rated through the relative loss of purity calculated by the equation: […]

[6] = Buffer pH 1.1 (head; method: 50 mM HCl pH 1.2), 2 h agitation, read-out: Solubility, Buffer pH 1.1
[7] = aqueous buffer, 50 mM phosphate buffer pH 6.5, 2 h agitation, read-out: Solubility, Buffer pH 6.5
[8] = aqueous buffer, 50 mM phosphate buffer pH 7.4, 2 h agitation, read-out: Solubility, Buffer pH 7.4
[9] = 50 mM phosphate buffer pH 6.5 + acetonitrile (3:1), read-out: Chemical stability (relative purity loss), Buffer pH 6.5
[10] = 50 mM phosphate buffer pH 7.4 + acetonitrile (3:1), read-out: Chemical stability (relative purity loss), Buffer pH 7.4
[11] = 50 mm hcl + acetonitrile, Buffer pH 1.1 (head; method: 50 mM HCl pH 1.2 + acetonitrile 3:1), read-out: Chemical stability (relative purity loss), Buffer pH 1.1

remaining at 1 h, 1 µM [2] [%] | remaining at 2 h, 1 µM [2] [%] | remaining at 4 h, 1 µM [2] [%] | remaining at 1 h, 1 µM [3] [%] | solubility at 2 h [4, 6] [µg/mL] | solubility at 2 h [4, 7] [µg/mL] | solubility at 2 h [4, 8] [µg/mL] | degraded at 24 h [5, 9] [%] | degraded at 24 h [5, 10] [%] | degraded at 24 h [5, 11] [%] | Structure (SMILES) | IC50 [1] [nM]
96 | 96 | 97 | 91 | ≥ 850 | < 10 | < 10 | 0 | 0.1 | 4.9 | Cc1cccc2c(C[C@@H]3NC(=O)CCCCCCCCCCNC(=O)CC[C@@H](C(=O)N[C@@H](CC(N)=O)C(=O)N[C@@H](Cc4cccnc4)C(=O)N(C)CC(N)=O)NC(=O)[C@](C)(CCCCN(C)C)NC(=O)[C@H](Cc4ccc5ccccc5c4)NC(=O)[C@H](Cc4ccc(OCCN(C)C)cc4)NC(=O)C4(CCOCC4)NC(=O)[C@H](CCC(N)=O)NC3=O)c[nH]c12 [compound 20] ([Aun][Trp(7-Me)]Q[Thp]Y(Me2NCH2CH2)[2Nal][αMeLys(Me2)]EN[3Pal][Sar]-NH2; lactam N-8) | 0.23
98 | 98 | 100 | 94 | ≥ 1200 | ≥ 1120 | ≥ 1120 | 0 | 0 | 0 | CC(=O)NCCCC[C@@H]1NC(=O)[C@H](Cc2c[nH]c3c(C)cccc23)NC(=O)CCCCCN(C)CCCCN(C)CCCC[C@@H](C(=O)N[C@@H](CC(N)=O)C(=O)N[C@@H](Cc2cccnc2)C(=O)N(C)CC(N)=O)NC(=O)[C@](C)(CCCCN(C)C)NC(=O)[C@H](Cc2ccc3ccccc3c2)NC(=O)[C@H](Cc2ccc(OCCN(C)C)cc2)NC(=O)C2(CCOCC2)NC1=O [compound 34] ([Trp(7-Me)]K(Ac)[Thp]Y(Me2NCH2CH2)[2Nal][αMeLys(Me2)][Lys(Me,(CH2)4NMe(CH2)5CO)]N[3Pal][Sar]-NH2; lactam N-7) | 1.34
95 | 96 | 95 | 13 | ≥ 1410 | < 10 | < 10 | 0 | 0 | 0 | Cc1cccc2c(C[C@@H]3NC(=O)CCCCCCCCC(=O)N(C)CCCC[C@@H](C(=O)NCC(=O)NCCc4cccnc4)NC(=O)C(C)(C)NC(=O)[C@H](Cc4ccc5ccccc5c4)NC(=O)[C@H](Cc4ccc(OCCN(C)C)cc4)NC(=O)C4(CCOCC4)NC(=O)[C@H](CC(C)C)NC3=O)c[nH]c12 [compound 17] ([Trp(7-Me)]L[Thp]Y(Me2NCH2CH2)[2Nal][Aib][Lys(Me)]G-{NH(2-(3-pyridyl)ethyl)}; linker N-7 via Sebacoyl) | 14.3
96 | 95 | 90 | 99 | ≥ 970 | 850 (≈ 526 µM) | 830 (≈ 513 µM) | 0 | 0 | 3 | CC(=O)NCCCC[C@@H]1NC(=O)[C@H](Cc2c[nH]c3c(C)cccc23)NC(=O)CCCCN(C)CCCCN(C)CCCC[C@@H](C(=O)NCC(=O)N[C@@H](Cc2cccnc2)C(=O)N(C)CC(N)=O)NC(=O)C(C)(C)NC(=O)[C@H](Cc2ccc3ccccc3c2)NC(=O)[C@H](Cc2ccc(OCCN(C)C)cc2)NC(=O)C2(CCOCC2)NC1=O [compound 29] ([Trp(7-Me)]K(Ac)[Thp]Y(Me2NCH2CH2)[2Nal][Aib][Lys(Me,(CH2)4NMe(CH2)4CO)]G[3Pal][Sar]-NH2; lactam N-7) | 2.75
93 | 91 | 90 | 100 | ≥ 1020 | ≥ 1220 | ≥ 1090 | 0 | 0 | 6 | Cc1cccc2c(C[C@@H]3NC(=O)CCCCCN(C)CCCCN(C)CCCC[C@@H](C(=O)N[C@@H](CC(N)=O)C(=O)N[C@@H](Cc4cccnc4)C(=O)N(C)CC(N)=O)NC(=O)C(C)(C)NC(=O)[C@H](Cc4ccc5ccccc5c4)NC(=O)[C@H](Cc4ccc(OCCN(C)C)cc4)NC(=O)C4(CCOCC4)NC(=O)[C@H](CCC(N)=O)NC3=O)c[nH]c12 [compound 31] ([Trp(7-Me)]Q[Thp]Y(Me2NCH2CH2)[2Nal][Aib][Lys(Me,(CH2)4NMe(CH2)5CO)]N[3Pal][Sar]-NH2; lactam N-7) | 0.71
88 | 87 | 82 | 98 | ≥ 940 | ≥ 890 | 840 (≈ 533 µM) | 0 | 0 | 6.2 | CN(C)CCOc1ccc(C[C@@H]2NC(=O)C3(CCOCC3)NC(=O)[C@H](CCC(N)=O)NC(=O)[C@H](Cc3cn(C)c4ccccc34)NC(=O)CCCCN(C)CCCCN(C)CCCC[C@@H](C(=O)NCC(=O)N[C@@H](Cc3cccnc3)C(=O)N(C)CC(N)=O)NC(=O)C(C)(C)NC(=O)[C@H](Cc3ccc4ccccc4c3)NC2=O)cc1 [compound 30] ([Trp(1-Me)]Q[Thp]Y(Me2NCH2CH2)[2Nal][Aib][Lys(Me,(CH2)4NMe(CH2)4CO)]G[3Pal][Sar]-NH2; lactam N-7) | 3.86
91 | 92 | 91 | 84 | ≥ 1180 | 340 (≈ 200 µM) | 130 (≈ 76.4 µM) | 0 | 0.1 | 3.4 | CC(=O)NCCCC[C@@H]1NC(=O)[C@H](Cc2c[nH]c3c(C)cccc23)NC(=O)CCCCCCCCCCNC(=O)CC[C@@H](C(=O)N[C@@H](CC(N)=O)C(=O)N[C@@H](Cc2cccnc2)C(=O)N(C)CC(N)=O)NC(=O)C2(CCOCC2)NC(=O)[C@H](Cc2ccc3ccccc3c2)NC(=O)[C@H](Cc2ccc(OCCN(C)C)cc2)NC(=O)C2(CCOCC2)NC1=O [compound 50] ([Aun][Trp(7-Me)]K(Ac)[Thp]Y(Me2NCH2CH2)[2Nal][Thp]EN[3Pal][Sar]-NH2; lactam N-8) | 0.19
89 | 88 | 87 | 86 | ≥ 870 | 80 (≈ 50.8 µM) | 40 (≈ 25.4 µM) | 0 | 0 | 7.4 | Cc1cccc2c(C[C@@H]3NC(=O)CCCCCCCCCCNC(=O)CC[C@@H](C(=O)N[C@@H](CC(N)=O)C(=O)N[C@@H](Cc4cccnc4)C(=O)N(C)CC(N)=O)NC(=O)C(C)(C)NC(=O)[C@H](Cc4ccc5ccccc5c4)NC(=O)[C@H](Cc4ccc(OCCN(C)C)cc4)NC(=O)C(C)(C)NC(=O)[C@H](CCC(N)=O)NC3=O)c[nH]c12 [compound 35] ([Aun][Trp(7-Me)]Q[Aib]Y(Me2NCH2CH2)[2Nal][Aib]EN[3Pal][Sar]-NH2; lactam N-8) | 0.6
